Counter-ions that a name gives are not always drawn.
Experiment: Comparison of physical properties: solubility in esters, ketones, ethers
Type: physicochemical
Conditions: organic solvents: esters
Method: The following is a comparative example, comparing substantially pure lercanidipine free base prepared as described in example 1 (a to d) with crude free base prepared by the method of U.S. Pat. No. 4,705,797 and lercanidipine hydrochloride. Crude free base was prepared as described below. Lercanidipine hydrochloride was obtained from Recordati S.p.A., Milan, Italy.

Compound: COC(=O)C1=C(C)NC(C)=C(C(=O)OC(C)(C)CN(C)CCC(c2ccccc2)c2ccccc2)C1c1cccc([N+](=O)[O-])c1 (centres unmarked) [Crude Free Base, methyl 1,1,N-trimethyl-N-(3,3-diphenylpropyl)-2-aminoethyl 1,4-dihydro-2,6-dimethyl-4-(3-nitrophenyl)pyridine-3,5-dicarboxylate]
- Solubility in esters, ketones, ethers: Very soluble

Compound: COC(=O)C1=C(C)NC(C)=C(C(=O)OC(C)(C)CN(C)CCC(c2ccccc2)c2ccccc2)C1c1cccc([N+](=O)[O-])c1 (centres unmarked) [Lercanidipine Hydrochloride, lercanidipine hydrochloride]
- Solubility in esters, ketones, ethers (hydrochloride): insoluble

From patent US20060199849A1, “Solid lercanidipine free base” (Recordati Ireland Limited, priority 2005, published 2006)
